# Laboratory results as given in PubChem BioAssay AID256 (DTP/NCI, 2004).
# Several values for one entry are separate records, joined by “and”; a condition that tells them apart may be missing. Equal values may be shown once. Toxic doses and inconclusive results are not listed.
# System: CD2F1 mice, L1210 leukemia ip, survival T/C
# Assay: NCI In Vivo Anticancer Drug Screen. Data for tumor model L1210 Leukemia (intraperitoneal) in CD2F1 (CDF1) mice
# Details: endpoint: mean survival time, higher = longer survival
# Summary of the method: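 Transplantable tumor in mice; compound-treated vs vehicle-treated groups. Read-out = treated/control ratio of the measured endpoint.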
# [1] = dose: 12.5 mg/kg/injection, schedule: Q01DX009 (ip), vehicle: saline with Tween-80
# [2] = dose: 25.0 mg/kg/injection, schedule: Q01DX009 (ip), vehicle: saline with Tween-80
# [3] = dose: 50.0 mg/kg/injection, schedule: Q01DX009 (ip), vehicle: saline with Tween-80
# [4] = dose: 25.0 mg/kg/injection, schedule: Q04DX002 (ip), vehicle: saline with Tween-80
# [5] = dose: 50.0 mg/kg/injection, schedule: Q04DX002 (ip), vehicle: saline with Tween-80
# [6] = dose: 200.0 mg/kg/injection, schedule: Q04DX002 (ip), vehicle: saline with Tween-80
# [7] = dose: 400.0 mg/kg/injection, schedule: Q04DX002 (ip), vehicle: saline with Tween-80
# [8] = dose: 100.0 mg/kg/injection, schedule: Q04DX003 (ip), vehicle: saline
# [9] = dose: 100.0 mg/kg/injection, schedule: Q04DX002 (ip), vehicle: saline with Tween-80
# [10] = dose: 100.0 mg/kg/injection, schedule: Q01DX009 (ip), vehicle: saline with Tween-80
# [11] = dose: 100.0 mg/kg/injection, schedule: Q04DX003 (ip), vehicle: saline with Tween-80
# [12] = dose: 200.0 mg/kg/injection, schedule: Q01DX009 (ip), vehicle: saline with Tween-80
# [13] = dose: 200.0 mg/kg/injection, schedule: Q04DX003 (ip), vehicle: saline with Tween-80
# [14] = dose: 400.0 mg/kg/injection, schedule: Q01DX009 (ip), vehicle: saline with Tween-80
# [15] = dose: 400.0 mg/kg/injection, schedule: Q04DX003 (ip), vehicle: saline with Tween-80
# [16] = dose: 100.0 mg/kg/injection, schedule: Q01DX001 (ip), vehicle: saline with Tween-80
# [17] = dose: 200.0 mg/kg/injection, schedule: Q01DX001 (ip), vehicle: saline with Tween-80
# [18] = dose: 400.0 mg/kg/injection, schedule: Q01DX001 (ip), vehicle: saline with Tween-80
# [19] = dose: 100.0 mg/kg/injection, schedule: Q01DX001 (ip), vehicle: saline
# [20] = dose: 200.0 mg/kg/injection, schedule: Q01DX001 (ip), vehicle: saline
# [21] = dose: 400.0 mg/kg/injection, schedule: Q01DX001 (ip), vehicle: saline
smiles,measurement,setting,value
O=C1NC(=O)C(=C/C=C/c2ccccc2)C(=O)N1,T/C,[1],97 % of control
same,T/C,[2],94 % of control
same,T/C,[3],91 % of control and 103 % of control
COc1ccc(C(=O)CCN2CCC(O)(c3ccccc3)CC2)cc1,T/C,[1],93 % of control
same,T/C,[2],97 % of control
same,T/C,[3],89 % of control
COc1ccc(NC(=O)Nc2ccccc2C)c(OC)c1,T/C,[4],88 % of control
same,T/C,[5],88 % of control
same,T/C,[6],90 % of control
same,T/C,[7],90 % of control
O=C(/C=C/c1ccccn1)c1ccccc1,T/C,"dose: 100.0 mg/kg/injection, schedule: Q04DX002 (ip), vehicle: Klucel (hydroxypropylcellulose) (HPC)",97 % of control
same,T/C,"dose: 200.0 mg/kg/injection, schedule: Q04DX002 (ip), vehicle: Klucel (hydroxypropylcellulose) (HPC)",104 % of control
Cc1c(C)c(C(=O)O)c(C)c(C)c1C(=O)O,T/C,[8],102 % of control
same,T/C,"dose: 200.0 mg/kg/injection, schedule: Q04DX003 (ip), vehicle: saline",100 % of control
same,T/C,"dose: 400.0 mg/kg/injection, schedule: Q04DX003 (ip), vehicle: saline",96 % of control
CSc1nc(C)cc(=O)[nH]1,T/C,[9],94 % of control
same,T/C,[6],97 % of control
same,T/C,[7],90 % of control
N=C(N)CCCCCCCCC(=N)N,T/C,"dose: 0.78 mg/kg/injection, schedule: Q01DX009 (ip), vehicle: saline",162 % of control
same,T/C,"dose: 1.56 mg/kg/injection, schedule: Q01DX009 (ip), vehicle: saline",96 % of control
same,T/C,"dose: 3.12 mg/kg/injection, schedule: Q01DX009 (ip), vehicle: saline",104 % of control
same,T/C,"dose: 6.25 mg/kg/injection, schedule: Q01DX009 (ip), vehicle: saline",106 % of control
same,T/C,"dose: 12.5 mg/kg/injection, schedule: Q01DX009 (ip), vehicle: saline",115 % of control
Nc1ccc2c(S(=O)(=O)O)ccc(O)c2c1,T/C,[10],100 % of control
same,T/C,[11],96 % of control
same,T/C,[12],93 % of control
same,T/C,[13],96 % of control
same,T/C,[14],90 % of control
same,T/C,[15],98 % of control
CCCCCCCCCCCCOc1ccc(F)cc1C,T/C,[9],93 % of control
same,T/C,[6],93 % of control
same,T/C,[7],96 % of control
C1=CSCCC1,T/C,"dose: 25.0 mg/kg/injection, schedule: Q04DX002 (ip), vehicle: saline + alcohol",102 % of control
same,T/C,"dose: 50.0 mg/kg/injection, schedule: Q04DX002 (ip), vehicle: saline + alcohol",94 % of control
same,T/C,"dose: 100.0 mg/kg/injection, schedule: Q04DX002 (ip), vehicle: saline + alcohol",90 % of control
CCOc1nc(=O)n(C2OC(CO)C(O)C2O)s1 (stereo unspecified),T/C,"dose: 12.5 mg/kg/injection, schedule: Q01DX005 (ip), vehicle: distilled water + Tween-80",100 % of control
same,T/C,"dose: 25.0 mg/kg/injection, schedule: Q01DX005 (ip), vehicle: distilled water + Tween-80",101 % of control
same,T/C,"dose: 50.0 mg/kg/injection, schedule: Q01DX005 (ip), vehicle: distilled water + Tween-80",101 % of control
same,T/C,"dose: 100.0 mg/kg/injection, schedule: Q01DX005 (ip), vehicle: distilled water + Tween-80",97 % of control
same,T/C,"dose: 200.0 mg/kg/injection, schedule: Q01DX005 (ip), vehicle: distilled water + Tween-80",102 % of control
OCC1OC(n2cnc3c(SSc4ncnc5c4ncn5C4OC(CO)C(O)C4O)ncnc32)C(O)C1O (stereo unspecified),T/C,"dose: 178.0 mg/kg/injection, schedule: Q01DX009 (ip), vehicle: saline",115 % of control
same,T/C,"dose: 400.0 mg/kg/injection, schedule: Q01DX009 (ip), vehicle: saline",150 % of control
O=C(NC(CSCc1ccccc1)C(=O)O)OCc1ccccc1 (stereo unspecified),T/C,[3],98 % of control
same,T/C,[10],94 % of control
same,T/C,[11],93 % of control
same,T/C,[12],103 % of control
same,T/C,[13],101 % of control
CC(=O)CCN1Cc2cc3c(cc2C(O)C1)OCO3 (stereo unspecified),T/C,"dose: 75.0 mg/kg/injection, schedule: Q01DX001 (ip), vehicle: saline",104 % of control
same,T/C,"dose: 150.0 mg/kg/injection, schedule: Q01DX001 (ip), vehicle: saline",97 % of control
same,T/C,"dose: 300.0 mg/kg/injection, schedule: Q01DX001 (ip), vehicle: saline",95 % of control
Cc1cc(O)c(C)c(C)c1N=Nc1ccccc1,T/C,"dose: 100.0 mg/kg/injection, schedule: Q01DX005 (ip), vehicle: saline with Tween-80",97 % of control
same,T/C,"dose: 200.0 mg/kg/injection, schedule: Q01DX005 (ip), vehicle: saline with Tween-80",97 % of control
same,T/C,"dose: 400.0 mg/kg/injection, schedule: Q01DX005 (ip), vehicle: saline with Tween-80",97 % of control
Nc1nc(N)nc(Cc2ccccc2)n1,T/C,[16],104 % of control
same,T/C,[17],103 % of control
same,T/C,[18],95 % of control
CC(SCc1ccccc1)C(NC(=O)c1ccccc1)C(=O)O (stereo unspecified),T/C,[10],93 % of control
same,T/C,[11],98 % of control
same,T/C,[12],90 % of control
same,T/C,[13],98 % of control
same,T/C,[14],93 % of control
same,T/C,[15],101 % of control
COc1ccc2c(c1O)-c1c(OC)c(OC)cc3c1C(C2)N(C)CC3 (stereo unspecified),T/C,[16],97 % of control
same,T/C,[17],97 % of control
same,T/C,[18],108 % of control
CCC(=O)Oc1ccc(C2N(Cc3ccc(N(C)C)cc3)CCCN2Cc2ccc(N(C)C)cc2)cc1,T/C,[11],103 % of control
same,T/C,[12],89 % of control
same,T/C,[13],92 % of control
CCCC(C)N (stereo unspecified),T/C,[19],98 % of control
same,T/C,[20],98 % of control
same,T/C,[21],94 % of control
CN=C1C=C/C(=N/N=c2/ccn(O)cc2C)C=C1C,T/C,[4],106 % of control
same,T/C,[5],95 % of control
same,T/C,[9],111 % of control
CC(=O)c1cc2ccccc2o1,T/C,"dose: 6.25 mg/kg/injection, schedule: Q04DX003 (ip), vehicle: saline with Tween-80",96 % of control
same,T/C,"dose: 12.5 mg/kg/injection, schedule: Q04DX003 (ip), vehicle: saline with Tween-80",96 % of control
same,T/C,"dose: 25.0 mg/kg/injection, schedule: Q04DX003 (ip), vehicle: saline with Tween-80",101 % of control
same,T/C,"dose: 50.0 mg/kg/injection, schedule: Q04DX003 (ip), vehicle: saline with Tween-80",95 % of control
CCc1ccc(O)cc1O,T/C,"dose: 25.0 mg/kg/injection, schedule: Q04DX003 (ip), vehicle: saline",97 % of control
same,T/C,"dose: 50.0 mg/kg/injection, schedule: Q04DX003 (ip), vehicle: saline",102 % of control
same,T/C,[8],94 % of control and 96 % of control
Cc1ccc2nc(-c3ccc(NC(=O)c4ccc(C(=O)Nc5ccc(-c6nc7ccc(C)cc7s6)cc5)cc4)cc3)sc2c1,T/C,[19],89 % of control
same,T/C,[20],89 % of control
same,T/C,[21],86 % of control
CCOC(=O)CC(c1ccccc1)C(C(=O)OCC)C(=O)OCC (stereo unspecified),T/C,[10],91 % of control
same,T/C,[12],91 % of control
same,T/C,[14],98 % of control
O=[N+]([O-])c1ccc(SSc2ccc([N+](=O)[O-])cn2)nc1,T/C,[3],93 % of control
same,T/C,[10],89 % of control
same,T/C,[11],100 % of control
same,T/C,[13],100 % of control
CC(=O)c1ccc2c3c(ccc([N+](=O)[O-])c13)C(=O)OC2=O,T/C,[11],91 % of control
same,T/C,[13],95 % of control
Cc1ccc(C)c(NC(=O)c2cccc(Cl)c2)c1,T/C,[10],89 % of control
same,T/C,[11],94 % of control
same,T/C,[12],94 % of control
same,T/C,[13],94 % of control
same,T/C,[14],102 % of control
same,T/C,[15],94 % of control
O=C1Cc2ccccc2CO1,T/C,[11],97 % of control
same,T/C,[13],94 % of control
same,T/C,[15],105 % of control
O=C1OC2(c3ccc(O)cc3Oc3cc(O)ccc32)C2C1C1(Cl)C(Cl)=C(Cl)C2(Cl)C1(Cl)Cl (stereo unspecified),T/C,[10],101 % of control
same,T/C,[12],97 % of control
same,T/C,[14],95 % of control
COC(=O)CC(=O)CBr,T/C,"dose: 5.0 mg/kg/injection, schedule: Q01DX001 (ip), vehicle: saline with Tween-80",95 % of control
same,T/C,"dose: 5.0 mg/kg/injection, schedule: Q01DX009 (ip), vehicle: saline with Tween-80",100 % of control
same,T/C,"dose: 10.0 mg/kg/injection, schedule: Q01DX001 (ip), vehicle: saline with Tween-80",95 % of control
same,T/C,"dose: 10.0 mg/kg/injection, schedule: Q01DX009 (ip), vehicle: saline with Tween-80",97 % of control
same,T/C,"dose: 20.0 mg/kg/injection, schedule: Q01DX001 (ip), vehicle: saline with Tween-80",95 % of control
same,T/C,"dose: 20.0 mg/kg/injection, schedule: Q01DX009 (ip), vehicle: saline with Tween-80",97 % of control
